This note sets out measurements from ChEMBL document CHEMBL1145531, “Cyclopentanone ring-cleaved pleuromutilin derivatives” (2007).

In brackets after ≈: the same amount, converted by molar mass. Where only a bound is given, the exact number is not on record here.

Assay [1] has as its system Streptococcus pneumoniae. Kind of assay: Antibacterial activity against Streptococcus pneumoniae A9585 after 24 hrs. Type of assay: functional. The note with it: A9585, 24 h.
Assay [2] relates to Staphylococcus aureus. Nature of the assay: Antibacterial activity against Staphylococcus aureus A15090 after 24 hrs. The settings on record: A15090, 24 h. Type of assay: functional.

The MIC is the lowest concentration found to suppress growth. As for `C=C[C@]1(C)C[C@@H](OC(=O)CSc2cccc(N)c2)[C@@]2(C)C(=O)[C@](CCC(=O)O)(CCC2C)[C@@H](C)[C@@H]1O` (stereo not given in full), the MIC in assay [1] was found to be 0.125 mg/L (≈ 0.241 µM); in assay [2], 0.25 mg/L (≈ 0.483 µM).
The corresponding values for `C=C[C@]1(C)C[C@@H](OC(=O)CSc2cccc(N)c2)[C@@]2(C)C(=O)[C@](CCC(=O)OCC)(CCC2C)[C@@H](C)[C@@H]1O` (stereo not given in full) are 1 mg/L (≈ 1.83 µM) and 1 mg/L (≈ 1.83 µM).
As for `C=C[C@]1(C)C[C@@H](OC(=O)CSc2ccccn2)[C@@]2(C)C(=O)[C@](CCC(=O)OCC)(CCC2C)[C@@H](C)[C@@H]1O` (stereo not given in full), the MIC in assay [1] and in assay [2] was 1 mg/L (≈ 1.88 µM) in each case.
Consider `C=C[C@]1(C)C[C@@H](OC(=O)CO)[C@]2(C)[C@H](C)CC[C@]3(CCC(=O)[C@@H]32)[C@@H](C)[C@@H]1O` [PLEUROMUTILIN], for which the MIC in assay [1] and in assay [2] was 0.5 mg/L (≈ 1.32 µM) throughout.
As for `C=C[C@]1(C)C[C@@H](OC(=O)CSc2cccc(N)c2)[C@@]2(C)C(=O)[C@](CCC(=O)NCC(=O)O)(CCC2C)[C@@H](C)[C@@H]1O` (stereo not given in full), the MIC in assay [1] stood at 2 mg/L (≈ 3.48 µM); in assay [2], 8 mg/L (≈ 13.9 µM).
In the case of `C=C[C@]1(C)C[C@@H](OC(=O)CSc2ccccc2C(=O)O)[C@@]2(C)C(=O)[C@](CCC(=O)N(CC)CC)(CCC2C)[C@@H](C)[C@@H]1O` (stereo not given in full), the minimum inhibitory concentration (MIC) came to 4 mg/L (≈ 6.65 µM) in assay [1] and 32 mg/L (≈ 53.2 µM) in assay [2].
`C=C[C@]1(C)C[C@@H](OC(=O)CSc2nnc(N)[nH]2)[C@@]2(C)C(=O)[C@](CCC(=O)O)(CCC2C)[C@@H](C)[C@@H]1O` (stereo not given in full): the MIC is above 64 mg/L in assay [1] and above 128 mg/L in assay [2].
The corresponding values for `C=C[C@]1(C)C[C@@H](OC(=O)CO)[C@@]2(C)C(=O)[C@](CCNC(=O)OCc3ccccc3)(CCC2C)[C@@H](C)[C@@H]1O` (stereo not given in full) are 0.25 mg/L (≈ 0.485 µM) and 16 mg/L (≈ 31 µM).
The corresponding values for `C=C[C@]1(C)C[C@@H](OC(=O)CSc2cccc(N)c2)[C@@]2(C)C(=O)[C@](CCC)(CCC2C)[C@@H](C)[C@@H]1O` (stereo not given in full) are 8 mg/L (≈ 16.4 µM) and 16 mg/L (≈ 32.8 µM).
The corresponding values for `C=C[C@]1(C)C[C@@H](OC(=O)CSc2cc(C)nc(C)c2)[C@@]2(C)C(=O)[C@](CCC(=O)N(CC)CC)(CCC2C)[C@@H](C)[C@@H]1O` (stereo not given in full) are 4 mg/L (≈ 6.82 µM) and 32 mg/L (≈ 54.5 µM).
Regarding `C=C[C@]1(C)C[C@@H](OC(=O)CO)[C@@]2(C)C(=O)[C@](CCC(N)=O)(CCC2C)[C@@H](C)[C@@H]1O` (stereo not given in full), the MIC is 64 mg/L (≈ 156 µM) in assay [1] and 128 mg/L (≈ 313 µM) in assay [2].
The corresponding values for `C=C[C@]1(C)C[C@@H](OC(=O)CO)[C@@]2(C)C(=O)[C@](CCCNC(=O)c3ccno3)(CCC2C)[C@@H](C)[C@@H]1O` (stereo not given in full) are 2 mg/L (≈ 4.08 µM) and 32 mg/L (≈ 65.2 µM).
In the case of `C=C[C@]1(C)C[C@@H](OC(=O)CSc2ccccc2O)[C@@]2(C)C(=O)[C@](CCC(=O)O)(CCC2C)[C@@H](C)[C@@H]1O` (stereo not given in full), the MIC amounted to 4 mg/L (≈ 7.71 µM) in assay [1] and 8 mg/L (≈ 15.4 µM) in assay [2].
`C=C[C@]1(C)C[C@@H](OC(=O)CSc2ccccn2)[C@@]2(C)C(=O)[C@](CCC(=O)O)(CCC2C)[C@@H](C)[C@@H]1O` (stereo not given in full): the minimum inhibitory concentration (MIC) in assay [1] and in assay [2] was 8 mg/L (≈ 15.9 µM) each time.
Turning to `C=C[C@]1(C)C[C@@H](OC(=O)CSc2ccncc2)[C@@]2(C)C(=O)[C@](CCC(=O)O)(CCC2C)[C@@H](C)[C@@H]1O` (stereo not given in full), the MIC in assay [1] is 64 mg/L (≈ 127 µM); in assay [2], 128 mg/L (≈ 254 µM).
As to `C=C[C@]1(C)C[C@@H](OC(=O)CO)[C@@]2(C)C(=O)[C@](CCC(=O)N(CC)CC)(CCC2C)[C@@H](C)[C@@H]1O` (stereo not given in full), the figures for the MIC in assay [1] and in assay [2] were above 64 mg/L and above 128 mg/L, respectively.
`C=C[C@]1(C)C[C@@H](OC(=O)CSc2cccc(N)c2)[C@@]2(C)C(=O)[C@](CCC(=O)N(CC)CC)(CCC2C)[C@@H](C)[C@@H]1O` (stereo not given in full): the MIC in assay [1] worked out at 4 mg/L (≈ 6.98 µM); in assay [2] it was 32 mg/L (≈ 55.9 µM).
The corresponding values for `C=C[C@]1(C)C[C@@H](OC(=O)CO)[C@@]2(C)C(=O)[C@](CCC(=O)NCC)(CCC2C)[C@@H](C)[C@@H]1O` (stereo not given in full) are above 64 mg/L and above 128 mg/L.
The corresponding values for `C=C[C@]1(C)C[C@@H](OC(=O)CSc2ccncc2)[C@@]2(C)C(=O)[C@](CCC(=O)OCC)(CCC2C)[C@@H](C)[C@@H]1O` (stereo not given in full) are 8 mg/L (≈ 15 µM) and 8 mg/L (≈ 15 µM).
The corresponding values for `C=C[C@]1(C)C[C@@H](OC(=O)CO)[C@@]2(C)C(=O)[C@](CCN)(CCC2C)[C@@H](C)[C@@H]1O` (stereo not given in full) are above 64 mg/L and above 128 mg/L.
As for `C=C[C@]1(C)C[C@@H](OC(=O)CO)[C@@]2(C)C(=O)[C@](CCC(=O)O)(CCC2C)[C@@H](C)[C@@H]1O` (stereo not given in full), the MIC in assay [1] and in assay [2] was 8 mg/L (≈ 19.5 µM) in each case.
As to `C=C[C@]1(C)C[C@@H](OC(=O)CSc2cccc(N)c2)[C@@]2(C)C(=O)[C@](CCC(=O)NCC(=O)OC(C)(C)C)(CCC2C)[C@@H](C)[C@@H]1O` (stereo not given in full), the MIC in assay [1] stood at 0.5 mg/L (≈ 0.793 µM); in assay [2], 4 mg/L (≈ 6.34 µM).
The corresponding values for `C=C[C@]1(C)C[C@@H](OC(=O)CSc2ccccc2)[C@@]2(C)C(=O)[C@](CCC(=O)O)(CCC2C)[C@@H](C)[C@@H]1O` (stereo not given in full) are above 64 mg/L and above 128 mg/L.
The corresponding values for `C=C[C@]1(C)C[C@@H](OC(=O)CO)[C@@]2(C)C(=O)[C@](CCNC(=O)OCC)(CCC2C)[C@@H](C)[C@@H]1O` (stereo not given in full) are 0.25 mg/L (≈ 0.551 µM) and 16 mg/L (≈ 35.3 µM).
On to `C=C[C@]1(C)C[C@@H](OC(=O)CO)[C@@]2(C)C(=O)[C@](CCCO)(CCC2C)[C@@H](C)[C@@H]1O` (stereo not given in full), for which the MIC was above 64 mg/L in assay [1] and above 128 mg/L in assay [2].
